Test system: 84 genes related to inflammatory and autoimmune processes
Assay: Mouse Inflammatory Response and Autoimmunity PCR Array, whole brain
Type: in vivo
Protocol: Frozen, pulverized whole brain tissue was processed for RNA extraction from a separate cohort of treated and untreated injured animals on days 1 post-injury(CN-105, n = 4; vehicle, n = 3; Control(sham-operated), n = 3). Total RNA was extracted from frozen, pulverized whole brain tissue using RNeasy Lipid Tissue Mini Kit(Qiagen, Valencia, CA). RNA quantity and quality was assessed with the NanoDrop ND-1000 spectrophotometer(NanoDrop Technologies, Inc., Wilmington, DE) and by agarose gel electrophoresis. Only samples with a 260/280 ratio between 1.9–2.1, and a 260/230 ratio greater than 2.0, were further processed. First strand complementary DNA(cDNA) was generated from 2 μg total RNA using the RT[2] First strand kit(SABiosciences, Frederick, MD.)
Gene expression was measured using the Mouse Inflammatory Response and Autoimmunity PCR Array(SABiosciences, Frederick, MD), which profiles the expression of 84 genes related to inflammatory and autoimmune processes. RT-PCR was performed according to manufacturer’s instructions Quality of the cDNA and PCR efficiency was verified by housekeeping genes and RT-PCR controls included in the PCR Array.
Raw RT-PCR data were analyzed using the Web-Based PCR Array Data Analysis software(SABiosciences). ΔCt values and ΔΔCt - based fold-change were calculated from raw threshold cycle data, using beta-actin and glyceraldehyde 3-phosphate dehydrogenase(GAPDH) as internal standards for normalization. Fold changes were then normalized against sham-operated controls.

[1] = TBI + CN-105 0.05 mg/kg iv 2 h post injury, brain 24 h
[2] = TBI CN-105 vs TBI vehicle, brain 24 h post TBI

Substance: Ac-VSRRR-amide [CN-105]
- Bcl6 ΔCt value, TBI-CN-105 [1]: 5.7E − 01
- C3ar1 ΔCt value, TBI-CN-105 [1]: 1.2E − 01
- C3 ΔCt value, TBI-CN-105 [1]: 1.9E − 03
- C4b ΔCt value, TBI-CN-105 [1]: 5.9E − 01
- Ccl1 ΔCt value, TBI-CN-105 [1]: 9.1E − 01
- Ccl2 ΔCt value, TBI-CN-105 [1]: 2.5E − 02
- Ccl3 ΔCt value, TBI-CN-105 [1]: 8.9E − 03
- Ccl4 ΔCt value, TBI-CN-105 [1]: 1.2E − 02
- Ccl5 ΔCt value, TBI-CN-105 [1]: 3.4E − 03
- Ccl7 ΔCt value, TBI-CN-105 [1]: 3.7E − 03
- Ccl8 ΔCt value, TBI-CN-105 [1]: 4.2E − 03
- Ccl11 ΔCt value, TBI-CN-105 [1]: 1.8E − 01
- Ccl12 ΔCt value, TBI-CN-105 [1]: 1.3E − 02
- Ccl17 ΔCt value, TBI-CN-105 [1]: 1.0E − 03
- Ccl19 ΔCt value, TBI-CN-105 [1]: 3.4E − 03
- Ccl20 ΔCt value, TBI-CN-105 [1]: 7.9E − 02
- Ccl22 ΔCt value, TBI-CN-105 [1]: 2.2E − 02
- Ccl24 ΔCt value, TBI-CN-105 [1]: 5.1E − 03
- Ccl25 ΔCt value, TBI-CN-105 [1]: 9.5E − 02
- Ccr1 ΔCt value, TBI-CN-105 [1]: 3.0E − 04
- Ccr2 ΔCt value, TBI-CN-105 [1]: 1.5E − 03
- Ccr3 ΔCt value, TBI-CN-105 [1]: 1.1E − 01
- Ccr4 ΔCt value, TBI-CN-105 [1]: 3.1E − 02
- Ccr7 ΔCt value, TBI-CN-105 [1]: 3.4E − 02
- Cd40lg ΔCt value, TBI-CN-105 [1]: 4.2E − 03
- Cd40 ΔCt value, TBI-CN-105 [1]: 2.1E − 02
- Cebpb ΔCt value, TBI-CN-105 [1]: 2.4E − 01
- Crp ΔCt value, TBI-CN-105 [1]: 7.1E − 04
- Csf1 ΔCt value, TBI-CN-105 [1]: 1.2E − 02
- Cxcl1 ΔCt value, TBI-CN-105 [1]: 1.8E − 03
- Cxcl2 ΔCt value, TBI-CN-105 [1]: 1.7E − 03
- Cxcl3 ΔCt value, TBI-CN-105 [1]: 1.6E + 00
- Cxcl5 ΔCt value, TBI-CN-105 [1]: 1.4E + 00
- Cxcl9 ΔCt value, TBI-CN-105 [1]: 2.2E − 03
- Cxcl10 ΔCt value, TBI-CN-105 [1]: 5.3E − 04
- Cxcl11 ΔCt value, TBI-CN-105 [1]: 8.8E − 03
- Cxcr4 ΔCt value, TBI-CN-105 [1]: 9.0E − 02
- Fasl ΔCt value, TBI-CN-105 [1]: 6.7E − 04
- Flt3l ΔCt value, TBI-CN-105 [1]: 7.1E − 04
- Fos ΔCt value, TBI-CN-105 [1]: 1.7E − 01
- Hdac4 ΔCt value, TBI-CN-105 [1]: 8.3E − 01
- Ifng ΔCt value, TBI-CN-105 [1]: 4.3E − 03
- Il1a ΔCt value, TBI-CN-105 [1]: 5.4E − 02
- Il1b ΔCt value, TBI-CN-105 [1]: 4.6E − 01
- Il1f10 ΔCt value, TBI-CN-105 [1]: 5.5E − 03
- Il1r1 ΔCt value, TBI-CN-105 [1]: 7.5E − 04
- Il1rap ΔCt value, TBI-CN-105 [1]: 8.2E − 04
- Il1rn ΔCt value, TBI-CN-105 [1]: 1.7E − 03
- Il6ra ΔCt value, TBI-CN-105 [1]: 1.6E − 01
- Il6 ΔCt value, TBI-CN-105 [1]: 1.8E − 03
- Il7 ΔCt value, TBI-CN-105 [1]: 5.9E − 01
- Il8ra ΔCt value, TBI-CN-105 [1]: 2.6E − 03
- Il8rb ΔCt value, TBI-CN-105 [1]: 5.4E − 03
- Il9 ΔCt value, TBI-CN-105 [1]: 1.4E − 02
- Il10rb ΔCt value, TBI-CN-105 [1]: 2.2E − 02
- Il10 ΔCt value, TBI-CN-105 [1]: 1.6E − 03
- Il18rap ΔCt value, TBI-CN-105 [1]: 6.6E − 03
- Il18 ΔCt value, TBI-CN-105 [1]: 9.6E − 03
- Il22ra2 ΔCt value, TBI-CN-105 [1]: 8.2E − 02
- Il22 ΔCt value, TBI-CN-105 [1]: 3.4E − 03
- Il23a ΔCt value, TBI-CN-105 [1]: 2.3E − 02
- Il23r ΔCt value, TBI-CN-105 [1]: 8.0E − 04
- Itgb2 ΔCt value, TBI-CN-105 [1]: 5.3E − 02
- Kng1 ΔCt value, TBI-CN-105 [1]: 8.5E − 03
- Lta ΔCt value, TBI-CN-105 [1]: 1.1E − 01
- Ltb ΔCt value, TBI-CN-105 [1]: 3.9E − 02
- Ly96 ΔCt value, TBI-CN-105 [1]: 7.7E − 02
- Myd88 ΔCt value, TBI-CN-105 [1]: 6.6E − 03
- Nfatc3 ΔCt value, TBI-CN-105 [1]: 3.2E + 00
- Nfkb1 ΔCt value, TBI-CN-105 [1]: 5.3E − 03
- Nos2 ΔCt value, TBI-CN-105 [1]: 1.6E − 01
- Nr3c1 ΔCt value, TBI-CN-105 [1]: 1.2E − 02
- Ripk2 ΔCt value, TBI-CN-105 [1]: 2.1E − 01
- Tirap ΔCt value, TBI-CN-105 [1]: 5.3E − 02
- Tlr1 ΔCt value, TBI-CN-105 [1]: 7.4E − 03
- Tlr2 ΔCt value, TBI-CN-105 [1]: 9.1E − 03
- Tlr3 ΔCt value, TBI-CN-105 [1]: 5.8E − 02
- Tlr4 ΔCt value, TBI-CN-105 [1]: 2.0E − 02
- Tlr5 ΔCt value, TBI-CN-105 [1]: 1.7E − 03
- Tlr6 ΔCt value, TBI-CN-105 [1]: 7.0E − 03
- Tlr7 ΔCt value, TBI-CN-105 [1]: 9.1E − 01
- Tnf ΔCt value, TBI-CN-105 [1]: 3.8E − 02
- Tnfsf14 ΔCt value, TBI-CN-105 [1]: 9.0E − 03
- Tollip ΔCt value, TBI-CN-105 [1]: 5.1E − 02
- Bcl6 Fold Change [2]: 921
- C3 Fold Change [2]: 1.5
- C3ar1 Fold Change [2]: −3.1
- C4b Fold Change [2]: −1.1
- Ccl1 Fold Change [2]: 1.5
- Ccl2 Fold Change [2]: −2.6
- Ccl3 Fold Change [2]: 1.5
- Ccl4 Fold Change [2]: −2.6
- Ccl5 Fold Change [2]: −1.6
- Ccl7 Fold Change [2]: −1.2
- Ccl8 Fold Change [2]: 31.2
- Ccl11 Fold Change [2]: −3.6
- Ccl12 Fold Change [2]: 64.2
- Ccl17 Fold Change [2]: −1.7
- Ccl19 Fold Change [2]: −5.2
- Ccl20 Fold Change [2]: −1.5
- Ccl22 Fold Change [2]: 60.2
